Source: ChEMBL document CHEMBL3616426 (Eur J Med Chem, 2015)

What was measured:
[1] = molecular target: T1, Estrogen receptor (Homo sapiens) (UniProt P03372); assay: Antagonist activity at ERalpha (301 to 553 amino acid residues) (unknown origin) assessed as inhibition of E2 induced interaction with SRC1 after 24 hrs by yeast-two-hybrid assay; design: concentration or dose not given beside the values; scale not given: the % may be the effect or the level left
T1 sequence (whole entry): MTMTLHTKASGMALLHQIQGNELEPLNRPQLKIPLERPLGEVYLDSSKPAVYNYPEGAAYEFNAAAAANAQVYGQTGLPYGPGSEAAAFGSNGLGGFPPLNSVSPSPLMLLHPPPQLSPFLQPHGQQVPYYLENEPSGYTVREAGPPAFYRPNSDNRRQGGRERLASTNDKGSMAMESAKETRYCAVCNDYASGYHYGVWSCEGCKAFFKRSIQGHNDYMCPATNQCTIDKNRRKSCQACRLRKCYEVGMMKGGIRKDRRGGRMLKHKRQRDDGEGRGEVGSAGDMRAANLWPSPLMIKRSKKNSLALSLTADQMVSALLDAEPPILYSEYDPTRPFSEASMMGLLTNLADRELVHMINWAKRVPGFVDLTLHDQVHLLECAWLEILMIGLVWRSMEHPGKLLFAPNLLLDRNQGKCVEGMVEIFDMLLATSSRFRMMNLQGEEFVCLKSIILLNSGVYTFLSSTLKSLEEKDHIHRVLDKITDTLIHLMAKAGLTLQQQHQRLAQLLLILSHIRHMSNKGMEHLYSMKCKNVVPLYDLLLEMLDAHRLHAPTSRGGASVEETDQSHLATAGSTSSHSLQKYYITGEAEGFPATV

[2] = molecular target: T1, Estrogen receptor (Homo sapiens); assay: Agonist activity at ERalpha (301 to 553 amino acid residues) (unknown origin) assessed as induction of interaction with SRC1 after 24 hrs by yeast two-hybrid assay relative to isopaucifloral F
Estrogen receptor beta = Estrogen receptor beta (Homo sapiens, UniProt Q92731); assay: Agonist activity at ERbeta (248 to 510 amino acid residues) (unknown origin) assessed as induction of interaction with SRC1 after 24 hrs by yeast two-hybrid assay
Estrogen receptor beta, sequence (Q92731 whole entry, the tested form may be a part): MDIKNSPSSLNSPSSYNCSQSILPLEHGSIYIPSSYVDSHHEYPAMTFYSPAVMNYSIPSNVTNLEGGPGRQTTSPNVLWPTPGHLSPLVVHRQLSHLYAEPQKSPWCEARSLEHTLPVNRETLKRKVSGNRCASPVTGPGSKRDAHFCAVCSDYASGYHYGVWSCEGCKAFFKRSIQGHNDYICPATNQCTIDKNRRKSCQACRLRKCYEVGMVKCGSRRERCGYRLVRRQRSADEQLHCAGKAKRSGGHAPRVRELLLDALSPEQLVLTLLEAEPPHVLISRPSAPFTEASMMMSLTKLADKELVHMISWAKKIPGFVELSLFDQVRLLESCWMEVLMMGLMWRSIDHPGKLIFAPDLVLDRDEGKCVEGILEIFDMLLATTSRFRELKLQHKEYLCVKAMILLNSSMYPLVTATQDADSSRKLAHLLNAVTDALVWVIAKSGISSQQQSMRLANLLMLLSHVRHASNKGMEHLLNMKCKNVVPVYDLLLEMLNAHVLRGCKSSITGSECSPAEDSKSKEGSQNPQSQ

Rattus norvegicus [3] = assay: Antiosteoporotic activity in ovariectomized Sprague-Dawley rat assessed as trabecular separation at 1 ug/kg, po qd at 12th week by micro-CT analysis (reference value: 0.146 +/- 0.010 millimeter); assay type: functional, Trabecula
Rattus norvegicus [4] = assay: Antiosteoporotic activity in ovariectomized Sprague-Dawley rat assessed as bone volume /tissue volume at 1 ug/kg, po qd at 12th week by micro-CT analysis (reference value: 31.61 +/- 2.39%); assay type: functional
Rattus norvegicus [5] = assay: Antiosteoporotic activity in ovariectomized Sprague-Dawley rat assessed as serum osteocalcin level at 1 ug/kg, po qd at 12th week by enzyme immunoassay (reference value: 1055.8 +/- 14 ng/ml); assay type: functional
Rattus norvegicus [6] = assay: Antiosteoporotic activity in ovariectomized Sprague-Dawley rat assessed as trabecular thickness at 1 ug/kg, po qd at 18th week by micro-CT analysis (reference value: 0.103 +/- 0.0044 millimeter); assay type: functional, Trabecula
Rattus norvegicus [7] = assay: Antiosteoporotic activity in ovariectomized Sprague-Dawley rat assessed as trabecular separation at 1 ug/kg, po qd at 6th week by micro-CT analysis (reference value: 0.116 +/- 0.010 millimeter); assay type: functional, Trabecula
Rattus norvegicus [8] = assay: Antiosteoporotic activity in ovariectomized Sprague-Dawley rat assessed as serum osteocalcin level at 1 ug/kg, po qd at 18th week by enzyme immunoassay (reference value: 1118.9 +/- 37.77 ng/ml); assay type: functional
Rattus norvegicus [9] = assay: Antiosteoporotic activity in ovariectomized Sprague-Dawley rat assessed as trabecular thickness at 1 ug/kg, po qd at 12th week by micro-CT analysis (reference value: 0.070 +/- 0.0063 millimeter); assay type: functional, Trabecula
Rattus norvegicus [10] = assay: Antiosteoporotic activity in ovariectomized Sprague-Dawley rat assessed as bone volume /tissue volume at 1 ug/kg, po qd at 6th week by micro-CT analysis (reference value: 41.33 +/- 5.04%); assay type: functional
Rattus norvegicus [11] = assay: Antiosteoporotic activity in ovariectomized Sprague-Dawley rat assessed as trabecular separation at 1 ug/kg, po qd at 18th week by micro-CT analysis (reference value: 0.234 +/- 0.021 millimeter); assay type: functional, Trabecula
Rattus norvegicus [12] = assay: Antiosteoporotic activity in ovariectomized Sprague-Dawley rat assessed as bone volume /tissue volume at 1 ug/kg, po qd at 18th week by micro-CT analysis (reference value: 27.36 +/- 1.99%); assay type: functional
Rattus norvegicus [13] = assay: Antiosteoporotic activity in ovariectomized Sprague-Dawley rat assessed as trabecular thickness at 1 ug/kg, po qd at 6th week by micro-CT analysis (reference value: 0.086 +/- 0.0069 millimeter); assay type: functional, Trabecula

SMILES | Activity [1] | fold change (FC) [2] | other results
Oc1ccc(CC2=C(c3cc(O)cc(O)c3)C(c3ccccc3)c3c(O)cc(O)cc32)cc1 (stereo not given) | 8.48% | 0.86 | –
Oc1ccc(C2C(c3cc(O)cc(O)c3)=C(Cc3ccc(Cl)cc3)c3cc(O)cc(O)c32)cc1 (stereo not given) | 15.2% | 0.88 | EC50 (Estrogen receptor beta): 45.8 µM
Oc1ccc(/C=C/c2cc(O)cc(O)c2)cc1 | 0% | 0.1 | –
O=C1c2cc(O)cc(O)c2[C@@H](c2ccccc2)[C@@H]1c1cc(O)cc(O)c1 (relative stereo) | 7.59% | 0.97 | –
Oc1ccc(CC2=C(c3cc(O)cc(O)c3)C(c3ccc(O)cc3)c3c(O)cc(O)cc32)cc1 (stereo not given) | 5.84% | 0.94 | –
O=c1c(-c2ccc(O)cc2)coc2cc(O)cc(O)c12 [GENISTEIN] | – | – | Activity (Rattus norvegicus [3]): 0.134 mm; Activity (Rattus norvegicus [4]): 40.62%; Activity (Rattus norvegicus [5]): 954.33 ng/mL; Activity (Rattus norvegicus [6]): 0.102 mm; Activity (Rattus norvegicus [7]): 0.125 mm; Activity (Rattus norvegicus [8]): 882.76 ng/mL; Activity (Rattus norvegicus [9]): 0.079 mm; Activity (Rattus norvegicus [10]): 40.5%; Activity (Rattus norvegicus [11]): 0.157 mm; Activity (Rattus norvegicus [12]): 41.62%; Activity (Rattus norvegicus [13]): 0.084 mm
Oc1ccc(C2C(c3cc(O)cc(O)c3)=C(Cc3ccccc3)c3cc(O)cc(O)c32)cc1 (stereo not given) | 2% | 0.98 | –
Oc1cc(O)cc(C2=C(Cc3ccccc3)c3cc(O)cc(O)c3C2c2ccccc2)c1 (stereo not given) | 0% | 0.88 | –

Second part, led by results:

Activity [1] | fold change (FC) [2] | SMILES | other results
0% | 0.86 | Oc1cc(O)c2c(c1)[C@H]1[C@H](c3ccccc3)c3c(O)cc(O)cc3[C@H]1[C@@H]2c1ccccc1 | –
0% | 0.99 | Cc1ccc([C@@H]2c3c(O)cc(O)cc3[C@H]3[C@H](c4ccc(O)cc4)c4c(O)cc(O)cc4[C@@H]23)cc1 | EC50 (Estrogen receptor beta): 5.65 µM
0% | 0.95 | Oc1ccc([C@@H]2c3c(O)cc(O)cc3[C@H]3[C@H](c4ccc(F)cc4)c4c(O)cc(O)cc4[C@@H]23)cc1 | –
24.5% | 1.04 | Oc1ccc([C@@H]2c3c(O)cc(O)cc3C(O)[C@H]2c2cc(O)cc(O)c2)cc1 (relative stereo) | –
0.76% | 0.94 | Oc1ccc([C@@H]2c3c(O)cc(O)cc3[C@H]3[C@H](c4ccccc4)c4c(O)cc(O)cc4[C@@H]23)cc1 | –
20.9% | 0.92 | Oc1ccc(/C=C2/c3cc(O)cc(O)c3[C@@H](c3ccc(O)cc3)[C@@H]2c2cc(O)cc(O)c2)cc1 | –
7.61% | 0.94 | O=C1c2cc(O)cc(O)c2[C@@H](c2ccc(F)cc2)[C@@H]1c1cc(O)cc(O)c1 (relative stereo) | –
1.59% | 0.83 | Oc1ccc(C2C(c3cc(O)cc(O)c3)=C(Cc3ccc(F)cc3)c3cc(O)cc(O)c32)cc1 (stereo not given) | –
5.23% | 1.01 | Oc1ccc([C@@H]2c3c(O)cc(O)cc3[C@H]3[C@H](c4ccc(O)cc4)c4c(O)cc(O)cc4[C@@H]23)cc1 | –
